Laboratory results as given in ChEMBL document CHEMBL3414446, “Neoechinulin B and its analogues as potential entry inhibitors of influenza viruses, targeting viral hemagglutinin” (Eur J Med Chem, 2015).

Experiments:
Influenza A virus [1] = test: Antiviral activity against OSV-resistant influenza A virus A/LiaoNing-ZhenXing/1109/2010 (H1N1) strain; assay type: functional, organism-based
Influenza A virus [2] = test: Antiviral activity against amantadine and ribavirin-resistant influenza A virus A/HuNan-huHui/1222/2010 (H3N2) strain; assay type: functional, organism-based

SMILES: NC12CC3CC(CC(C3)C1)C2 [AMANTADINE]
- IC50 (Influenza A virus [1]): 0.82 µM
- IC50 (Influenza A virus [2]): > 200 µM

SMILES: C=CC(C)(C)c1[nH]c2ccccc2c1/C=c1\[nH]c(=O)c(=C)[nH]c1=O [NEOECHINULIN B]
- IC50 (Influenza A virus [1]): 16.9 µM
- IC50 (Influenza A virus [2]): 22.2 µM

SMILES: CCOC(=O)C1=C[C@@H](OC(CC)CC)[C@H](NC(C)=O)[C@@H](N)C1 [OSELTAMIVIR]
- IC50 (Influenza A virus [1]): > 200 µM
- IC50 (Influenza A virus [2]): > 20.5 µM

SMILES: NC(=O)c1ncn([C@@H]2O[C@H](CO)[C@@H](O)[C@H]2O)n1 [RIBAVIRIN]
- IC50 (Influenza A virus [1]): 1.05 µM
- IC50 (Influenza A virus [2]): > 150 µM
